# Test: Inhibition of ADP-induced platelet aggregation in canine platelet-rich plasma
row,SMILES,IC50 [µM]
1,CC(=O)N[C@@H](CS)C(=O)N[C@@H](CCCN=C(N)N)C(=O)NCC(=O)N[C@@H](CC(=O)O)C(=O)N[C@@H](C(N)=O)C(C)(C)S,4.12
2,C[C@H](NC(=O)[C@H](CS)NC(=O)[C@@H]1CCCN1C(=O)[C@H](CO)NC(=O)[C@H](CC(=O)O)NC(=O)CNC(=O)[C@H](CCCNC(=N)N)NC(=O)CNC(=O)[C@@H](NC(=O)CN)C(C)(C)S)C(=O)O,10.1
3,N=C(N)NCCC[C@@H]1NC(=O)[C@@H]2CCCN2C(=O)CNC(=O)[C@H]2CCCN2C(=O)[C@H](CC(=O)O)NC(=O)CNC1=O,76.6
4,CC(=O)N[C@@H](CS)C(=O)N(C)[C@H](CCCN=C(N)N)C(=O)NCC(=O)N[C@@H](CC(=O)O)C(=O)N[C@H](C(N)=O)C(C)(C)S,1.79
5,CC(=O)N[C@@H](CS)C(=O)N[C@@H](CCCNC(=N)N)C(=O)NCC(=O)N[C@@H](CC(=O)O)C(=O)N[C@H](C(N)=O)C(C)(C)S,20.3
6,CC(=O)N[C@@H](CS)C(=O)N[C@H](CCCN=C(N)N)C(=O)NCC(=O)N[C@@H](CC(=O)O)C(=O)N[C@H](C(N)=O)C(C)(C)S,4.1
7,CC(=O)N[C@@H](CS)C(=O)N(C)[C@@H](CCCN=C(N)N)C(=O)NCC(=O)N[C@@H](CC(=O)O)C(=O)N[C@H](C(N)=O)C(C)(C)S,0.355
8,N=C(N)NCCC[C@@H]1NC(=O)[C@@H]2CCCN2C(=O)[C@H]2CCCN2C(=O)CNC(=O)[C@H](CC(=O)O)NC(=O)CNC1=O,5.26
9,CN(C(=O)c1ccccc1S)[C@@H](CCCNC(=N)N)C(=O)NCC(=O)N[C@@H](CC(=O)O)C(=O)Nc1ccccc1S,0.09
10,N=C(N)NCCC[C@@H]1NC(=O)[C@@H]2CCCN2C(=O)[C@@H](Cc2ccccc2)NC(=O)CNC(=O)[C@H](CC(=O)O)NC(=O)CNC1=O,17.7

# Reference: BindingDB's records for doi:10.1021/jm00099a026 (Smithkline Beecham Pharmaceuticals, 1992)
